The source of these data is patent publication US20080234355A1, “DNA METHYL TRANSFERASE INHIBITORS CONTAINING A ZINC BINDING MOIETY” (priority 2006, published 2008).

By IC50 is commonly meant the midpoint of a concentration-inhibition curve. For orientation: melting point means the temperature, or range, at which the solid turns liquid.

For one series, the system named is HDAC. In words: HDAC fluorimetric assay kit (AK-500, Biomol), HeLa nuclear extract. The format is biochemical. The note with it: Fluor de Lys substrate, 1 hour reaction, read-out: HDAC IC50 (grade). The protocol: (a) An In Vitro Assay which Determines the Ability of a Test Compound to Inhibit HDAC Enzymatic Activity.
HDAC inhibitors were screened using an HDAC fluorimetric assay kit (AK-500, Biomol, Plymouth Meeting, Pa.). Test compounds were dissolved in dimethylsulphoxide (DMSO) to give a 20 mM working stock concentration. Fluorescence was measured on a WALLAC Victor 2 plate reader and reported as relative fluorescence units (RFU). Data were plotted using GraphPad Prism (v4.0a) and IC50's calculated using a sigmoidal dose response curve fitting algorithm.
Each assay was setup as follows: Defrosted all kit components and kept on ice until use. Diluted HeLa nuclear extract 1:29 in Assay Buffer (50 mM Tris/Cl, pH 8.0, 137 mM NaCl, 2.7 mM KCl, 1 mM MgCl2). Prepared dilutions of Trichostatin A (TSA, positive control) and tested compounds in assay buffer (5× of final concentration). Diluted Fluor de Lys™ Substrate in assay buffer to 100 uM (50 fold=2× final). Diluted Fluor de Lys™ developer concentrate 20-fold (e.g. 50 μl plus 950 μl Assay Buffer) in cold assay buffer. Second, diluted the 0.2 mM Trichostatin A 100-fold in the 1× Developer (e.g. 10 μl in 1 ml; final Trichostatin A concentration in the 1× Developer=2 μM; final concentration after addition to HDAC/Substrate reaction=1 μM). Added Assay buffer, diluted trichostatin A or test inhibitor to appropriate wells of the microtiter plate. Added diluted HeLa extract or other HDAC sample to all wells except for negative controls. Allowed diluted Fluor de Lys™ Substrate and the samples in the microtiter plate to equilibrate to assay temperature (e.g. 25 or 37° C. Initiated HDAC reactions by adding diluted substrate (25 μl) to each well and mixing thoroughly. Allowed HDAC reactions to proceed for 1 hour and then stopped them by addition of Fluor de Lys™ Developer (50 μl). Incubated plate at room temperature (25° C.) for 10-15 min. Read samples in a microtiter-plate reading fluorimeter capable of excitation at a wavelength in the range 350-380 nm and detection of emitted light in the range 440-460 nm.

The test system of series [1] is gelatinase A (MMP2; Type IV collagenase). The following applies: 3T3 cells; cited from earlier work.
The test system of series [2] is ER mRNA expression in human ER-negative breast cancer cell lines. The note with it: cited from earlier work.

Molecules are shown by their SMILES.

Turning to `Nc1ccc(C(=O)NCCNC(=O)CCCCC(=O)NO)cc1` [Compound 30], in the series on HDAC, the IC50 lay in the range of 1 to 10 µM.

Regarding `CCN(CCNC(=O)c1ccc(N)cc1)C(=O)CCCCC(=O)NO` [Compound 36, N^1-(2-(4-aminobenzamido)ethyl)-N^1-ethyl-N^6-hydroxyadipamide], the IC50 with HDAC was in the range of 1 to 10 µM. The same measure, in the same setting: under `CCN(CCNC(=O)c1ccc(N)cc1)C(=O)CCC(=O)NO` [Compound 34, N^1-(2-(4-aminobenzamido)ethyl)-N^1-ethyl-N^4-hydroxysuccinamide] stands > 10 µM. On to `Nc1ccc(C(=O)NCCNC(=O)CCCC(=O)NO)cc1` [Compound 29, N-hydroxy-4-(2-(4-aminobenzamido)-ethylcarbamoyl)butanamide], for which the melting point lay in the range of 158.9 to 159.8 °C. For the same molecule, the IC50 in the series on HDAC was 0.1 to 1 µM.

Turning to `Nc1ccc(C(=O)NCCNCCC(=O)NO)cc1` [Compound 25], in the series on HDAC, the IC50 was > 10 µM. As to `CC(/C=C/C(=O)NO)=C\[C@@H](C)C(=O)c1ccc(N(C)C)cc1` [TSA, trichostatin A], the “mRNA as well as zymographic activity of gelatinase A (MMP2)” value in series [1] is given as “decreases”. The “increase in ER mRNA expression” value in series [2] is reported as 5 fold. For the molecule `Nc1ccc(C(=O)NCCNCCC(=O)CCC(=O)NO)cc1` [Compound 28], the IC50 with HDAC is > 10 µM.
